# Data published in patent EP3381905A1, “NOVEL ANTIVIRAL COMPOUNDS” (priority 2017, dated 2018).
# Experiments:
# U2OS cells = test: cytotoxicity, CellTiter-Glo Luminescent Cell Viability Assay; settings: for cytotoxicity profile (normalized cell viability): 250 nM to 50 µM, 36 h (Figure 7)
# [1] = test system: GFP expressing HAd-C5 vector; test: fluorescent plaque forming assay (adenoviral propagation / virus spread); type: cell-based, adenovirus
# [2] = test system: MARV VP40 with the late domain motif of Ebola virus (PTAPPEY) VP40 (VP40ELD); type: cell-based, Marburg virus
# HAd-C5-wt virus = test: adenoviral early gene expression by real-time PCR; type: cell-based, adenovirus; settings: U2OS cells, 5 µM, 4 hours post-infection, vs vehicle
# HAd-C5 = test: adenovirus genome nuclear import (nuclear protein VII staining, confocal microscopy); type: cell-based; settings: U2OS cells, 5 µM, 2500 pp/cell, 2 hours post-infection, vs DMSO
compound,measurement,setting,value
Clc1ccc(CO/N=C(\Cn2ccnc2)c2ccc(Cl)cc2Cl)c(Cl)c1 [Oxiconazole],cytotoxicity profile (normalized cell viability),U2OS cells,cytotoxicity profiles similar to Sulconazole
Nc1ccn(C[C@@H](CO)OCP(=O)(O)O)c(=O)n1 [Cidofovir],inhibition of adenoviral propagation (plaque size),"[1]; 10 µM and 20 µM (Example 8, Figure 6)",did not show significant inhibition
Clc1ccc(CSC(Cn2ccnc2)c2ccc(Cl)cc2Cl)cc1 (stereo not shown) [Sulconazole],plaque size (adenovirus virus propagation),"[1]; 5 µM, HEK293 cells, 0.1 pp/cell HAd-C5-GFP, six days after infection, vs DMSO (Example 3, Figure 1, P<0.0001)",significant reduced plaque size
same,VP40 VLP release,[2],inhibit
same,"early viral genes expression (E1A, E1B, E4 orf6/7)",HAd-C5-wt virus,significant reduction of early viral genes expression
same,nuclear accumulation of viral genomes (protein VII),HAd-C5,significantly reduces the nuclear accumulation of viral genomes
same,reduction of MARV titers (TCID50),MARV,1-2 log
same,cytotoxicity,"U2OS cells; 5 µM, 36 h",not cytotoxic
"Clc1ccc(-c2ccc(Cn3ccnc3)c(-c3ccc(Cl)cc3Cl)c2)c(Cl)c1 [CT2-10, 1-((2,2"",4,4""-Tetrachloro-[1,1':3',1""-terphenyl]-4'-yl)methyl)-1H-imidazole]",cytotoxicity profile (normalized cell viability),U2OS cells,cytotoxicity profiles similar to Sulconazole
"Clc1ccc(-c2cc(-n3ccnc3)c(-c3ccc(Cl)cc3Cl)o2)c(Cl)c1 [CT2-13, 1-(2,5-bis(2,4-Dichlorophenyl)furan-3-yl)-1H-imidazole]",cytotoxicity profile (normalized cell viability),U2OS cells,cytotoxicity profiles similar to Sulconazole
